Measured values reported in ChEMBL document CHEMBL1127721, “EPSP synthase inhibitor design IV. New aromatic substrate analogs and symmetrical inhibitors containing novel 3-phosphate mimics” (Bioorg Med Chem Lett, 1994).

molecular target: T1, 3-phosphoshikimate 1-carboxyvinyltransferase (Escherichia coli K-12, UniProt P0A6D3); assay: Inhibition of Escherichia coli EPSP synthase; conditions: not given
T1 sequence (P0A6D3 whole entry): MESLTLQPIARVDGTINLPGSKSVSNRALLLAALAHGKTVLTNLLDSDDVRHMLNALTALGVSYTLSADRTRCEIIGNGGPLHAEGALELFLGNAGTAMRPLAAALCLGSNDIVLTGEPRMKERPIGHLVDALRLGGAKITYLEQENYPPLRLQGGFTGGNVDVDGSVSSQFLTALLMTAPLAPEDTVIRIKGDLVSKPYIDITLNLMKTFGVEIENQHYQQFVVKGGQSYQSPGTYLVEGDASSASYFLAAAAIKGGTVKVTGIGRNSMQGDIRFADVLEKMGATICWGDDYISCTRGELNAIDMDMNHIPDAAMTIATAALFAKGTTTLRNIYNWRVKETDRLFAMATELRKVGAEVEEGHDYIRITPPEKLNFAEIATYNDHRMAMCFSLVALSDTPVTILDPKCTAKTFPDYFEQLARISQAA

Row | IC50 [µM] | Ki [µM] | SMILES
1 | 2000 | – | O=C(O)COc1cc(OC(C(=O)O)C(=O)O)cc(C(=O)O)c1
2 | 10000 | – | O=C(O)COc1cc(CP(=O)(O)O)cc(C(=O)O)c1
3 | 20 | 0.16 | O=C(O)c1cc(OC(C(=O)O)P(=O)(O)O)cc(OP(=O)(O)O)c1 (stereo not drawn)
4 | 85 | – | O=C(O)c1cc(OP(=O)(O)O)cc(OP(=O)(O)O)c1
5 | 210 | – | O=C(O)c1cc(OC(C(=O)O)C(=O)O)cc(OC(C(=O)O)C(=O)O)c1
6 | 10000 | – | O=C(O)COc1cc(C(=O)O)cc(P(=O)(O)O)c1
7 | 7900 | – | O=C(O)c1cc(O)cc(OP(=O)(O)O)c1
8 | 100 | 1.5 | O=C(O)CO[C@@H]1CC(C(=O)O)=C[C@@H](OP(=O)(O)O)[C@@H]1O
9 | 3000 | – | O=C(O)c1cc(CP(=O)(O)O)cc(CP(=O)(O)O)c1
10 | > 80000 | – | O=C(O)c1cc(O)cc(CP(=O)(O)O)c1
11 | 10000 | – | O=C(O)c1cc(O)cc(OC(C(=O)O)C(=O)O)c1
12 | 1400 | – | O=C(O)COc1cc(OP(=O)(O)O)cc(C(=O)O)c1

Row | SMILES | IC50 [µM] | Ki [µM]
13 | O=C(O)COc1cc(C(=O)O)cc(C(O)P(=O)(O)O)c1 (stereo not drawn) | 3000 | –
14 | O=C(O)c1cc(O)cc(C(O)P(=O)(O)O)c1 (stereo not drawn) | 10000 | –

same assay, conditions: read-out: Ki app

Row | Ki [µM] | SMILES
15 | 0.78 | O=C(O)c1cc(OP(=O)(O)O)cc(OP(=O)(O)O)c1
16 | 2.5 | O=C(O)c1cc(OC(C(=O)O)C(=O)O)cc(OC(C(=O)O)C(=O)O)c1
